Target: T1, α1G T-type calcium channel (Homo sapiens, UniProt O43497)
T1 construct: expressed in transfected cells; host or cells: HEK293 cells stably expressing α1G, selected with G-418; The cell line KCTC 10519BP is named only for the FDSS6000 screen
Experiment: T-type calcium channel activity by electrophysiological whole-cell patch-clamp technique
Assay type: cell-based
Settings: HEK293 cells stably expressing α1G T-type calcium channels, inhibition of inward peak currents, test pulse −30 mV, holding −100 mV
Protocol: The novel compounds of the present invention represented by the above formula 1 were tested for their antagonistic activities with regard to T-type calcium channel as follows.
2) Methods for the Measurements of T-Type Calcium Channel Activity Using an Electrophysiological Whole-Cell Patch-Clamp Technique
HEK293 cells stably expressing T-type calcium channels were cultured in DMEM (Dulbecco's modified Eagle's medium) containing 10% (v/v) fetal bovine serum and 1% penicillin/streptomycin (v/v) in humidified 5% CO2 at 36.5° C. Cells expressing α1G T-type calcium channels were selected using G-418 (0.5 mg/mL) in the culture medium. The culture medium was replaced with a fresh one every 3-4 days, and cells were subcultured every week.
Cells were seeded on the coverglass coated with poly-L-lysine (0.5 mg/mL) for the measurements of T-type calcium channel activity 2-7 days prior to the recordings. Whole-cell recordings of T-type calcium channel currents were performed using an EPC-9 patch clamp amplifier (HEKA, Germany). Whole-cell currents were recorded using micropipettes with resistance of 3-4MΩ with the pipette (intracellular) solution containing (in mM): 130 KCl, 11 EGTA, 5 Mg-ATP, and 10 HEPES, pH to 7.4 and with the bath (extracellular) solution containing (in mM): 140 NaCl, 2 CaCl2, and 10 HEPES, pH to 7.4. The inward currents of T-type calcium channels were evoked by the test pulses of −30 mV for 50 ms at a holding potential of −100 mV every 10 seconds.
Each compound was dissolved in dimethylsulfoxide (DMSO) as 10 mM stock solutions and diluted in the bath solution to 10 μM (containing 0.1% DMSO). […] More specifically, each compound was perfused to the bath for about 30-60 seconds, and the inhibition of the inward peak currents by a test compound was calculated as a percent inhibition from which IC50 values were determined.

T1 sequence (O43497 whole entry): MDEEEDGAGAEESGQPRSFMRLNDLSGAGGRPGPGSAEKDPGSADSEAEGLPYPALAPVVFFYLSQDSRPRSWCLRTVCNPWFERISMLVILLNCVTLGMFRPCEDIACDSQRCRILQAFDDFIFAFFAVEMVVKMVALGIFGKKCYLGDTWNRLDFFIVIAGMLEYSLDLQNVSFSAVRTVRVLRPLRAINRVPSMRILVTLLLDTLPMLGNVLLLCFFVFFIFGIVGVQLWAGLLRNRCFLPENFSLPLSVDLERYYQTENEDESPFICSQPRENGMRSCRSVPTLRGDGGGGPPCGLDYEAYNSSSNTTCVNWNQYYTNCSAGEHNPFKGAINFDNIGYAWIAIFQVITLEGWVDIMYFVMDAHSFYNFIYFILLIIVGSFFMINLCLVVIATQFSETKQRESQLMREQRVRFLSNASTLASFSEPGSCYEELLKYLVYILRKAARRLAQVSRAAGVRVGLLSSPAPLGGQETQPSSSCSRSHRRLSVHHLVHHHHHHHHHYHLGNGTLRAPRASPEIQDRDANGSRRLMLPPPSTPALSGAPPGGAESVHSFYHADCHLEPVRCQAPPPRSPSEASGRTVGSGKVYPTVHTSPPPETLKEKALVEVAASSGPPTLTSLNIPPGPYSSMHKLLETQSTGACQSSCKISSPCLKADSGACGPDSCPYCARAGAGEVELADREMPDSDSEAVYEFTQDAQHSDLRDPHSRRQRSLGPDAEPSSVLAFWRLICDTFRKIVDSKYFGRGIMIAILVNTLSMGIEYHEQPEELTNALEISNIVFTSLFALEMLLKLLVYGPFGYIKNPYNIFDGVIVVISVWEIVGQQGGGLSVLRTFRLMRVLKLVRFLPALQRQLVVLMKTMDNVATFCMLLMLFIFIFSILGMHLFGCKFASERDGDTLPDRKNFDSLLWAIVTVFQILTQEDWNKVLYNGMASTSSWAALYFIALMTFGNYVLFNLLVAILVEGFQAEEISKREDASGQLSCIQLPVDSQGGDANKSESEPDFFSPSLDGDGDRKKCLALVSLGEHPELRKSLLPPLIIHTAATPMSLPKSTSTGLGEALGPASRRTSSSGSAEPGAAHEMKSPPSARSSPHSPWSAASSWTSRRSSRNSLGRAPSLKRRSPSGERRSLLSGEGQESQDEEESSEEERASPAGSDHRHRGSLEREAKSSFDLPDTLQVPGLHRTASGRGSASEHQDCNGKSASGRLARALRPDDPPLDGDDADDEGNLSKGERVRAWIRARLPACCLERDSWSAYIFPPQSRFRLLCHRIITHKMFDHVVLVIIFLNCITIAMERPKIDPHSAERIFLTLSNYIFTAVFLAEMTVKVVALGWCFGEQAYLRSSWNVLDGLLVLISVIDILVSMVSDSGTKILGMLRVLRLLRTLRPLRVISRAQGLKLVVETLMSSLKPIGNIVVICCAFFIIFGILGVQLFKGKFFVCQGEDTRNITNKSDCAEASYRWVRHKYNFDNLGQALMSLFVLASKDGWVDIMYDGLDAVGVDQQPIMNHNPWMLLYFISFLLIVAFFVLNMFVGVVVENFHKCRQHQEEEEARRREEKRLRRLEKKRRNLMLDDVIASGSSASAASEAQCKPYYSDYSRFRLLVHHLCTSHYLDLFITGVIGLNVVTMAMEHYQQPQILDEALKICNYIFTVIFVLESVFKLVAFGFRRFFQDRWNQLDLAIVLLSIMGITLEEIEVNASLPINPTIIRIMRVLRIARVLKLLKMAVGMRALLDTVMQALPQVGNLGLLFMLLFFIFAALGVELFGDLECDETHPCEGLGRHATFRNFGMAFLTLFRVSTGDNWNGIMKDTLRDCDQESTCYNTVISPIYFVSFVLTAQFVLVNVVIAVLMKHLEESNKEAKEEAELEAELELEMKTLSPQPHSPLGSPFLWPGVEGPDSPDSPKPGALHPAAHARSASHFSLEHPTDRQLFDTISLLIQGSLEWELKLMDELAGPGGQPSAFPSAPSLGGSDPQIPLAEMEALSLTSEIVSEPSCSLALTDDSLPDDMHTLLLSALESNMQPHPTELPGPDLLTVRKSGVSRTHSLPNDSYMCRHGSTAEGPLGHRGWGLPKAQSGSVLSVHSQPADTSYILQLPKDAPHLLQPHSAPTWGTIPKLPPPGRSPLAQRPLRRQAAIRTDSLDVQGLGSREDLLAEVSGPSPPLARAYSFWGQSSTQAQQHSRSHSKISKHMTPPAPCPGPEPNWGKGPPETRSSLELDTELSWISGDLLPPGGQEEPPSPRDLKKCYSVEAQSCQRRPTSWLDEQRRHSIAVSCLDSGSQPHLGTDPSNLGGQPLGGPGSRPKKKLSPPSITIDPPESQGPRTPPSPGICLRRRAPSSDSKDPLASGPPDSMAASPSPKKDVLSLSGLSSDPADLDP

Structure (SMILES) | IC50 [nM]
CCCc1cc(CNC(=O)CN2CCN(c3ccccc3)CC2)nn1-c1ccccc1 [Compound No. 27, 3-[(4-phenylpiperazin-1-yl)methylcarboxamido}methyl-5-propyl-1-phenyl-1H-pyrazole] | 5100 ± 110
O=C(CN1CCN(c2ccccc2)CC1)NCc1cc(-c2ccco2)n(-c2ccccc2)n1 [Compound No. 11, 3-[(4-phenylpiperazin-1-yl)methylcarboxamido]methyl-5-furyl-1-phenyl-1H-pyrazole] | 2570 ± 170
CC(C)Cc1cc(CNC(=O)CN2CCN(c3ccccn3)CC2)nn1-c1ccccc1 [Compound No. 36, 3-{[4-(2-pyridyl)piperazin-1-yl]methylcarboxamido}methyl-5-isobutyl-1-phenyl-1H-pyrazole] | 9420 ± 700
CCCc1cc(CNC(=O)CN2CCN(Cc3ccc4c(c3)OCO4)CC2)nn1-c1ccccc1 [Compound No. 33, 3-[(4-piperonylpiperazin-1-yl)methylcarboxamido]methyl-5-propyl-1-phenyl-1H-pyrazole] | 9560 ± 1420
Cc1cc(CNCC(=O)N2CCN(C(c3ccccc3)c3ccccc3)CC2)nn1-c1ccccc1 [Compound No. 65, 3-[(4-benzhydrylpiperazin-1-yl)carbonylmethylamino]methyl-5-methyl-1-phenyl-1H-pyrazole] | 3500 ± 350
CCCc1cc(CNC(=O)CN2CCN(Cc3ccc(C(F)(F)F)cc3)CC2)nn1-c1ccccc1 [Compound No. 32, 3-{[4-(4-trifluoromethyl)benzylpiperazin-1-yl]methylcarboxamido}methyl-5-propyl-1-phenyl-1H-pyrazole] | 1810 ± 90
Cc1cc(CNC(=O)CN2CCN(C(c3ccccc3)c3ccccc3)CC2)nn1-c1ccccc1 [Compound No. 3, 3-[(4-benzhydrylpiperazin-1-yl)methylcarboxamido]methyl-5-methyl-1-phenyl-1H-pyrazole] | 1830 ± 120
CC(C)Cc1cc(CNC(=O)CN2CCN(Cc3ccc(C(F)(F)F)cc3)CC2)nn1-c1ccccc1 [Compound No. 16, 3-{[4-(4-trifluoromethylbenzyl)piperazin-1-yl]methylcarboxamido}methyl-5-isobutyl-1-phenyl-1H-pyrazole] | 1770 ± 100
Cc1cc(CNC(=O)CN2CCN(Cc3ccc(Cl)c(Cl)c3)CC2)nn1-c1ccccc1 [Compound No. 6, 3-{[4-(3,4-dichlorobenzyl)piperazin-1-yl]methylcarboxamido}methyl-5-methyl-1-phenyl-1H-pyrazole] | 1420 ± 160
Cc1cc(CNC(=O)CN2CCN(Cc3cccc(C(F)(F)F)c3)CC2)nn1-c1ccccc1 [Compound No. 5, 3-{[4-(3-trifluoromethyl)benzylpiperazin-1-yl]methylcarboxamido}methyl-5-methyl-1-phenyl-1H-pyrazole] | 1420 ± 160

Continued, values first:

IC50 [nM] | Structure (SMILES)
300 ± 10 | CC(C)Cc1cc(CNCC(=O)N2CCN(Cc3ccc(Cl)c(Cl)c3)CC2)nn1-c1ccccc1 [Compound No. 75, 3-{[4-(3,4-dichlorobenzyl)piperazin-1-yl]carbonylmethylamino}methyl-5-isobutyl-1-phenyl-1H-pyrazole]
20 ± 10 | Cc1cccc(N2CCN(CC(=O)NCc3cc(C)n(-c4ccccc4)n3)CC2)c1C [Compound No. 1, 3-{[4-(2,3-dimethyl)phenylpiperazin-1-yl]methylcarboxamido}methyl-5-methyl-1-phenyl-1H-pyrazole]
3540 ± 90 | CC(C)Cc1cc(CNC(=O)CN2CCN(c3ccccc3)CC2)nn1-c1ccccc1 [Compound No. 9, 3-[(4-phenylpiperazin-1-yl)methylcarboxamido]methyl-5-isobutyl-1-phenyl-1H-pyrazole]
400 ± 40 | Cc1ccc(N2CCN(C(=O)CNCc3cc(CC(C)C)n(-c4ccccc4)n3)CC2)c(C)c1 [Compound No. 69, 3-{[4-(2,4-dimethylphenyl)piperazin-1-yl]carbonylmethylamino}methyl-5-isobutyl-1-phenyl-1H-pyrazole]
2060 ± 1200 | Cc1cccc(N2CCN(C(=O)CNCc3cc(C)n(-c4ccccc4)n3)CC2)c1C [Compound No. 64, 3-{[4-(2,3-dimethylphenyl)piperazin-1-yl]carbonylmethylamino}methyl-5-methyl-1-phenyl-1H-pyrazole]
360 ± 30 | Cc1cccc(N2CCN(C(=O)CNCc3cc(CC(C)C)n(-c4ccccc4)n3)CC2)c1C [Compound No. 76, 3-{[4-(2,3-dimethylphenyl)piperazin-1-yl]carbonylmethylamino}methyl-5-isobutyl-1-phenyl-1H-pyrazole]

Reference: patent publication US8299072B2, “Pyrazolylmethylamine compounds as calcium channel modulators and preparation method thereof” (Korea Institute of Science and Technology, priority 2008, dated 2012)
